From patent EP4559919A1, “TRICYCLIC-CONTAINING MACROCYCLIC COMPOUND AND USE THEREOF” (Medshine Discovery Inc., priority 2022, dated 2024)

What was measured:
[1] = target: T1, ALK(G1202R) (Homo sapiens, UniProt Q9UM73, G1202R); assay: In vitro kinase inhibitory activity assay, Experimental method 1 (ADP-Glo); format: biochemical; conditions: final ATP 50 µM, read-out: Kinase half maximal inhibitory concentration IC50 ALK^G1202R
T1 construct: purchased Carna
Description: (§1) The kinase inhibitory activity assays of the compounds against ALK, ALK^L1196M, ALK^G1202R, ALK^G1202R/L1196M, ROS1, and TRKB were conducted at Wuhan Heyan Biotechnology Co., Ltd. or Hefei PreceDo Biotechnology Co., Ltd.
(§2) Experimental materials: ALK Active, ALK(L1196M) Active, ALK(G1202R) Active, and ALK(G1202R/L1196M) Active were purchased from Carna; SRC Substrate was purchased from SignalChem; IGF1R tide was purchased from SignalChem; ADP-Glo Kinase Assay was purchased from Promega; Kinase assay buffer III was purchased from SignalChem; and Nivo multimode plate reader (PerkinElmer).
(§3) Each concentration of the compounds was further diluted 20-fold using 1X kinase buffer to prepare compound working solutions containing 5% DMSO. 1 µL of each concentration gradient working solution was added to a microplate, with duplicate wells set for each concentration. 2 µL of ALK enzyme (15 ng per well) and 2 µL of a mixture of substrate and ATP (25 µM ATP, 0.5 µg/µL SRC Substrate) were added to the microplate. […] The reaction system was placed at 25°C for 1 hour. After the reaction, 5 µL of ADP-Glo reagent was added to each well and reacted at 25°C for another 40 minutes. After the reaction, 10 µL of kinase detection reagent was added to each well and reacted at 25°C for 30 minutes. Chemiluminescence was then measured using the PerkinElmer Nivo multimode plate reader with an integration time of 0.5 seconds.
ALK (G1202R) kinase inhibition assay method: The preparation method for the working solution of the test compound was the same as for the ALK kinase. […] The subsequent steps were the same as for ALK kinase.
(§4) The IC50 value could then be derived by performing a curve fit using a four-parameter logistic model (obtained using the "log(inhibitor) vs. response -- Variable slope" mode in GraphPad Prism).

[2] = target: T2, ALK(G1202R/L1196M) (Homo sapiens, UniProt Q9UM73, G1202R/L1196M); assay: as above; format: biochemical; conditions: final ATP 50 µM, read-out: Kinase half maximal inhibitory concentration IC50 ALK^G1202R/L1196M
T2 construct: purchased Carna
Description: as §1, §2, §3
ALK (G1202R/L1196M) kinase inhibition assay method: The preparation method for the working solution of the test compound was the same as for the ALK kinase. […] The subsequent steps were the same as for ALK kinase.
as §4

[3] = target: T3, TRKB (Homo sapiens, UniProt Q16620); assay: as above; format: biochemical; conditions: read-out: Kinase half maximal inhibitory concentration IC50 TRKB
T3 construct: purchased Carna
Description: as §1, §2, §3
TRKB kinase inhibition assay method: The preparation method for the working solution of the test compound was the same as for the ALK kinase. 2 µL of TRKB (0.5 ng per well) and 4 µL of a mixture of substrate and ATP (5 µM ATP, 0.5 µM SRC Substrate) were added to the microplate. […] The subsequent steps were the same as for ALK kinase.
as §4

[4] = target: T3, TRKB; assay: In vitro kinase inhibitory activity assay, Experimental method 2 (ADP-Glo); format: biochemical
Description: as §1
(§5) Experimental materials: ALK (G1202R/L1196M) Active and TRKB were purchased from Carna; IGF1 was purchased from GenScript; PolyE4Y1 was purchased from SIGMA; ADP-Glo™ Reagent was purchased from Promega; ATP was purchased from Promega; Kinase Detection Reagent was purchased from Promega; microplate reader ( PerkinElmer).
TRKB reaction concentration 4.47 nM, ATP concentration 5.0 µM, substrate PolyE4Y1 concentration 0.2 µg/µL. TRKB kinase buffer was 40 mM Tris-HCl (pH 7.5) + 20 mM magnesium chloride + 2.5 mM manganese chloride + 0.1mg/mL BSA+ 50 µM DTT.
(§6) ALK(G1202R/L1196M) and TRKB detection method: 2 µL of kinase and 1 µL of compound were added to a 384-well plate; 2 µL of substrate/ATP mixture was added and incubated at room temperature in the dark for 60 minutes; 5 µL of ADP-Glo™ reagent was added and incubated at room temperature for 40 minutes; 10 µL of kinase detection reagent was added and incubated at room temperature for 30 minutes; the plate was read on a microplate reader, and luminescence was recorded (integration time set to 0.5 seconds).
as §4

[5] = target: T2, ALK(G1202R/L1196M); assay: as above; format: biochemical
Description: as §1, §5
Reaction system: ALK(G1202R/L1196M) reaction concentration 8.63 nM, ATP concentration 5.0 µM, substrate IGF1 concentration 0.2 µg/µL. ALK(G1202R/L1196M) kinase buffer was 40 mM Tris-HCl (pH 7.5) + 20 mM magnesium chloride + 0.1 mg/mL BSA + 50 µM DTT.
as §6, §4

[6] = test system: Ba/F3-EML4-ALK-G1202R/L1196M; assay: Anti-proliferative activity test on Ba/F3 cell lines (CellTiter-Glo); format: cell-based; conditions: Ba/F3 EML4-ALK-G1202R-L1196M; 72 hours; read-out: Half maximal inhibitory concentration IC50 for cells Ba/F3-EML4-ALK-G1202R/L1196 M
Description: (§7) • (1) Cell culture: The cell lines were cultured in an incubator at 37°C with 5% CO2. Regular passaging was performed, and cells in the logarithmic growth phase were selected for plating; • (2) Preparation of compound storage plate: The test compounds were prepared into a 10 mM solution with DMSO (Stock Con.); The compounds were then prepared into a 1 mM solution with DMSO (Work Con.); 1 µL of the stock solution was mixed with 9 µL of DMSO to prepare a 10 µL work solution. • (3) Preparation of 1000× compound storage plate (tube): The compounds were 3-fold serially diluted from […] to the lowest concentration, for a total of 8 concentrations; • (4) Preparation of 20× compound working solution: 98 µL of cell culture medium was added to a flat-bottomed 96-well transparent drug plate. From the 1000× compound storage plate, 2 µL of the compound was pipetted into the cell culture medium in the 96-well transparent drug plate. In the solvent control, 2 µL of DMSO was added. After the compound or DMSO was added, the mixture was homogenized using a pipette. • (5) Cells were stained with trypan blue and viable cells were counted to ensure a cell viability of 90% or more. The cell concentration was adjusted to an appropriate concentration; • (6) 95 µL of cell suspension (2000 cells/well) was added to each well of the compound assay cell plate, and cell-free culture medium containing 0.1% DMSO was added to the Min control wells; • (7) Administration in the compound assay cell plate: 5 µL of 20× compound working solution was added to the cell culture plate, 5 µL of DMSO-cell culture medium mixture was added to the Max control wells, and the final concentration of DMSO was 0.1%; • (8) The culture plate was then incubated in an incubator at 37°C with 5% CO2 for 72 hours; • (9) The following operations were conducted in accordance with the instructions of the Promega CellTiter-Glo Luminescent Cell Viability Assay Kit (Promega-G7573): CellTiter-Glo buffer was thawed and brought to room temperature; CellTiter-Glo substrate was brought to room temperature; CellTiter-Glo buffer was added to a bottle of CellTiter-Glo substrate to dissolve the substrate, thereby preparing CellTiter-Glo working solution; The mixture was slowly vortexed and shaken to be fully dissolved; The cell culture plate was removed and allowed to equilibrate to room temperature for 10 minutes; 50 µL (equal to half the volume of cell culture medium in each well) of CellTiter-Glo working solution was added to each well; The culture plate was shaken on an orbital shaker for 2 minutes to induce cell lysis; The plate was then left at room temperature for 10 minutes to stabilize the luminescent signal; The luminescent signal was detected using a SpectraMax Paradigm plate reader; Cell viability assay was conducted using CellTiter-Glo luminescence method.
(§8) Data analysis: The corresponding […] value (RLU) for each well was obtained from SpectraMax Paradigm readings. […] The inhibition rates corresponding to compounds at different concentrations were calculated in Excel, and the inhibition rate curves were plotted using GraphPad Prism software to calculate relevant parameters, including the maximum and minimum inhibition rates of the cells and the IC50 value.

[7] = test system: Ba/F3-TEL-TRKB; assay: as above; format: cell-based; conditions: Mus musculus, BaF3; 72 hours; read-out: Half maximal inhibitory concentration IC50 for cells Ba/F3-TEL-TRKB
Description: as §7, §8

[8] = Experimental method 2, ATP 5.0 µM, substrate PolyE4Y1, read-out: Kinase half maximal inhibitory concentration IC50 TRKB
[9] = Experimental method 2, ATP 5.0 µM, substrate IGF1, read-out: Kinase half maximal inhibitory concentration IC50 ALK^G1202R/L1196M

T2 sequence (Q9UM73 19-1620 L1196M/G1202R): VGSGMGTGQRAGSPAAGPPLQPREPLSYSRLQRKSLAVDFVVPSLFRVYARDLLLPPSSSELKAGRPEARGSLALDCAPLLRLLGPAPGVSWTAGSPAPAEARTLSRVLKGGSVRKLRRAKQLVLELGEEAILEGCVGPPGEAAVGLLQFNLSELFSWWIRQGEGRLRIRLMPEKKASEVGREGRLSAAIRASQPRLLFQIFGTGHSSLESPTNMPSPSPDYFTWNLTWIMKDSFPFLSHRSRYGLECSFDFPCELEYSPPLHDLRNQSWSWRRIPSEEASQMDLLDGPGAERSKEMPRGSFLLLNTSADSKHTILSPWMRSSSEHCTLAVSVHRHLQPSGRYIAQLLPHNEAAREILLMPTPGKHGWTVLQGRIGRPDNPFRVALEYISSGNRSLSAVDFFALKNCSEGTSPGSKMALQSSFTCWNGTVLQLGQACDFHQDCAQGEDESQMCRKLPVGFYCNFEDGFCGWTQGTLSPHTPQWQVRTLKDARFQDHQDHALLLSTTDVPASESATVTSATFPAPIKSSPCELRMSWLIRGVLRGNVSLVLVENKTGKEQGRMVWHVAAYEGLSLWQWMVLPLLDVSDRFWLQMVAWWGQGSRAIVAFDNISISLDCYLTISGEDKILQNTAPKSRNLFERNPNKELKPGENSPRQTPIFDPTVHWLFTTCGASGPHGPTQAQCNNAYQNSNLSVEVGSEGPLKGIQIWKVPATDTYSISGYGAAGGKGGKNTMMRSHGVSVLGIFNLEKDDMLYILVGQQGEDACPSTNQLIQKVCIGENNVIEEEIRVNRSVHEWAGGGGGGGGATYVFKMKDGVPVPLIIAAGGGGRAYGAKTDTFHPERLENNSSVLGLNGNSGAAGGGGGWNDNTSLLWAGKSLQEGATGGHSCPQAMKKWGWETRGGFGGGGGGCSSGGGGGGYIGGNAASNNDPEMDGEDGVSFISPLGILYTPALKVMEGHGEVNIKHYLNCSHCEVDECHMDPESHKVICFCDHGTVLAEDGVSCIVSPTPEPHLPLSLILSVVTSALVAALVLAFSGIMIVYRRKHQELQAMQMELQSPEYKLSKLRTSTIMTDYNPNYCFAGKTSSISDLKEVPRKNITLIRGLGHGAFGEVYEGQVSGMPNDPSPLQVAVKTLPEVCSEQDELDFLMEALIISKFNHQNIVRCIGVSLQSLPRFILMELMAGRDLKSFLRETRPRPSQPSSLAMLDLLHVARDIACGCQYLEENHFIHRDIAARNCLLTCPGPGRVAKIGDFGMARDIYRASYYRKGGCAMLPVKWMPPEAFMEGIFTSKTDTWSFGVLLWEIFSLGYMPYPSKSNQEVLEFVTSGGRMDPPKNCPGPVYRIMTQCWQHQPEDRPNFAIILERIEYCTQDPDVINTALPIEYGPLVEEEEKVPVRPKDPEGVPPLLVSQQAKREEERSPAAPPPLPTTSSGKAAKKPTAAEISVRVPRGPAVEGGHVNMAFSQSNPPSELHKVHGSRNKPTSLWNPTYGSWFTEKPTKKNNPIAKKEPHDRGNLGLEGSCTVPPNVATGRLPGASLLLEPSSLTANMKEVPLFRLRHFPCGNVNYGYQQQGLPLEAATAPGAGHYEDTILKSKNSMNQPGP
T3 sequence (Q16620 32-822): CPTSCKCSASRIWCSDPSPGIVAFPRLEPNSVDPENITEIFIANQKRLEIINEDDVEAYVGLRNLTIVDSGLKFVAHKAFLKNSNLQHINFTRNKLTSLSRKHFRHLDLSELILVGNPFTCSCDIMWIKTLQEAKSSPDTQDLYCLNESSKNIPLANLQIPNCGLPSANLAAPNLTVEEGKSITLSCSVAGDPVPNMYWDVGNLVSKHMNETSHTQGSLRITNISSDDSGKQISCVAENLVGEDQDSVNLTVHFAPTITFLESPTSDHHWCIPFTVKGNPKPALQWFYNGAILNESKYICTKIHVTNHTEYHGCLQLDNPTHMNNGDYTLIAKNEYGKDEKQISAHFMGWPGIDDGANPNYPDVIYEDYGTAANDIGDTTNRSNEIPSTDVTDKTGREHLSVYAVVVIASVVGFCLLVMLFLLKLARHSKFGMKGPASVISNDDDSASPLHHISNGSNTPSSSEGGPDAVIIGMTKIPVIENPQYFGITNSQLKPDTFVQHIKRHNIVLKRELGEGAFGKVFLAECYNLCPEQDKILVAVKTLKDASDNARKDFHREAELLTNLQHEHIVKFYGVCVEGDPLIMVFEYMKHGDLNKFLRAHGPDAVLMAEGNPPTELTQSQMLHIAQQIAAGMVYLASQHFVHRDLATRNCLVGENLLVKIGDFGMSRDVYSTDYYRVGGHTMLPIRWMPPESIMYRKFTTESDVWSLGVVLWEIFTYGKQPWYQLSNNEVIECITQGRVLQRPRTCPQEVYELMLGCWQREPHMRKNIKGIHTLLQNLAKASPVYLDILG
T1 sequence (Q9UM73 19-1620 G1202R): as the sequence (Q9UM73 19-1620 L1196M/G1202R) above, with M1178L counted along it

SMILES	IC50 [2] [nM]	IC50 [4, 8] [nM]	IC50 [5, 9] [nM]	further results
CCON=C1NC(C)(C)COc2ccc(F)cc2CN2c3nc4c1cnn4cc3OC[C@H]2C(F)F [Compound 002]	14.6	–	–	IC50 [1]: 27.8 nM
COCCON=C1NC(C)(C)COc2ccc(F)cc2CN2c3nc4c1cnn4cc3OC[C@H]2C(F)F [Compound 003]	11.3	–	–	IC50 [1]: 12.2 nM
CC1(C)COc2ncc(F)cc2CN2c3nc4c(cnn4cc3OC[C@H]2C(F)F)C(=S)N1 [Compound 004]	1.3	–	–	IC50 [3]: 2.4 nM
Cc1nn2cc3c4nc2c1C(=O)NC(C)(C)COc1ccc(F)cc1CN4[C@H](C(F)F)CO3 [Compound 006]	–	1.2	0.6	–
CC1(C)COc2ccc(F)cc2CN2c3nc4c(cc3OC[C@H]2C(F)F)ncn4C(=O)N1 [Compound 007]	–	–	–	IC50 [4]: 2.6 nM; IC50 [5]: 1 nM
CC1(C)COc2ccc(F)cc2CN2c3nc4c(cc3OC[C@H]2C(F)F)ncn4C(=S)N1 [Compound 008]	–	7.8	1.7	–
CC1(C)COc2ccc(F)cc2CN2c3nc4c(c(Br)nn4cc3OC[C@H]2C(F)F)C(=O)N1 [Compound 009]	–	2	0.8	IC50 [6]: 7.3 nM; IC50 [7]: 7.8 nM
CC1(C)COc2ccc(F)cc2CN2c3nc4c(c(C#N)nn4cc3OC[C@H]2C(F)F)C(=O)N1 [Compound 010]	–	4.4	1.5	–
